Assay results as given in the Kinase Knowledgebase extract (Sharma et al. 2016).

Molecular target: CDK2 (UniProt P24941)
Assay: Enzyme Assay

Row | SMILES | IC50 [µM]
1 | Cc1cccc(NC(=O)Nc2csc(-c3ccncc3)n2)n1 | < 50
2 | O=C(Nc1ccc(C(F)(F)F)cn1)Nc1csc(-c2ccncc2)n1 | < 50
3 | O=C(Nc1cccc(N2CCOCC2)n1)Nc1csc(-c2ccncc2)n1 | < 50
4 | O=C(Nc1csc(-c2cccnc2)n1)Nc1nc(-c2ccccc2)cs1 | < 50
5 | O=C(Nc1ccccn1)Nc1csc(-c2ccccn2)n1 | < 50
6 | O=C(Nc1csc(-c2ccncc2)n1)Nc1nccs1 | < 50
7 | NC(=O)c1ccc(NC(=O)Nc2csc(-c3ccncc3)n2)nc1 | < 50
8 | CCCc1cccc(NC(=O)Nc2csc(-c3ccnc(CC)c3)n2)n1 | < 50
9 | CN(C(=O)Nc1csc(-c2ccncc2)n1)c1ccccn1 | < 50
10 | Cc1cccc(NC(=O)Nc2csc(-c3cccnc3)n2)n1 | < 50
11 | O=C(Nc1ccccn1)Nc1csc(-c2ccncc2)n1 | < 50
12 | CCc1ccnc(NC(=O)Nc2csc(-c3ccncc3)n2)c1 | < 50
13 | O=C(Nc1csc(-c2cccnc2)n1)Nc1nccs1 | < 50
14 | CCCc1cccc(NC(=O)Nc2cccc(-c3cccnc3)c2)n1 | < 50
15 | CCN(CC)c1cccc(NC(=O)Nc2csc(-c3ccncc3)n2)n1 | < 50
16 | O=C(Nc1csc(-c2ccncc2)n1)Nc1nc(-c2cccnc2)cs1 | < 50

Row | SMILES | IC50 [µM]
17 | O=C(Nc1cccc(NCCCN2CCOCC2)n1)Nc1csc(-c2ccncc2)n1 | < 50
18 | CCCc1cccc(NC(=O)Nc2csc(-c3ccncc3)n2)n1 | < 50
19 | O=C(Nc1csc(-c2cccnc2)n1)Nc1nc(-c2cccnc2)cs1 | < 50
20 | O=C(Nc1csc(-c2cccnc2)n1)Nc1csc(-c2cccnc2)n1 | < 50
21 | O=C(Nc1cccc(N2CCCCC2)n1)Nc1csc(-c2ccncc2)n1 | < 50
22 | Cc1cccnc1NC(=O)Nc1csc(-c2ccncc2)n1 | < 50
23 | CCN(CC)Cc1cccc(NC(=O)Nc2csc(-c3ccncc3)n2)n1 | < 50
24 | O=C(Nc1csc(-c2ccncc2)n1)Nc1cccc2[nH]cnc12 | < 50
25 | CCc1cccc(NC(=O)Nc2csc(-c3ccncc3)n2)n1 | < 50
26 | Cc1ccc(NC(=O)Nc2csc(-c3ccncc3)n2)nc1 | < 50
27 | O=C(Nc1csc(-c2ccncc2)n1)Nc1csc(-c2ccncc2)n1 | < 50
28 | CN1CCN(c2cccc(NC(=O)Nc3csc(-c4ccncc4)n3)n2)CC1 | < 50
29 | CN(C)CCNc1cccc(NC(=O)Nc2csc(-c3ccncc3)n2)n1 | < 50
30 | O=C(Nc1csc(-c2ccncc2)n1)Nc1ccc2ccccc2n1 | < 50
31 | O=C(Nc1csc(-c2ccncc2)n1)Nc1cc2ccccc2c(Br)n1 | < 50
32 | O=C(Nc1ccccn1)Nc1csc(-c2cccnc2)n1 | < 50
